Test results as given in patent US4791135A (priority 1987, dated 1988).
Converted amounts (≈) assume the structure as drawn. Where two headings read alike, the source gives them in different places. One block for each compound: values may come before it.

Tests used:
[1] = Stability in 5% NaHCO3/D2O at room temperature, monitored by PMR; type: physicochemical
Description: (§1) To a 5 mm NMR tube containing 10 mg of sample was added 0.5 mL of 2.5% K2 CO3 /D2 O solution. The initial spectrum of the solution was taken within 5 minutes, and again at intervals thereafter. The extent of hydrolysis was estimated by the following equation:
(§2) % Decomposition=(B/2A+B)×100
(§3) where A=integration of H-10 (5.80 ppm, d, J=10.8 Hz, 1H) and H-12 (5.71 ppm, s, 1H) of artesunate; B=integration of the singlet at 2.42 ppm for the potassium succinate formed. With time, the intensity of potassium succinate (2.42 ppm) signal increases, while that of H-10 and H-12 of artesunate decreases. The stability study of compound 1 in 5% NaHCO3 /D2 O was also carried out by the same procedure.

Plasmodium berghei = experiment: In vivo suppressive blood schizonticidal and curative activity in infected mice, 60 days survival; set-up: species or system Plasmodium berghei (in mice); settings: for Number active (A): active = survival time greater than twice control mice (12 to 14 days); for Number of Cures: cured = surviving 60 days
Description: The suppressive blood schizonticidal and curative activities of artemisinin, artelinic acid and artesunic acid, were measured in a test where mice were infected with 5.98×10^5 Plasmodium berghei parasitized cells intraperitoneally on day zero. […] The dose levels of compounds given were 640, 160, and 40 mg/kg/day. Blood films were taken on days 6, 13, and 20. Blood schizonticidal activity was determined by monitoring blood films for the appearance of parasites and for extended survival times compared to infected untreated controls. Mice surviving 60 days were considered cured. The infected untreated control mice (negative controls) died on either day 6 or 7. Compounds were considered active when the survival time of the treated mice was greater than twice the control mice, i.e., 12 to 14 days.

[2] = background, cited from earlier work
physchem = type: physicochemical
Description: To compare the relative stability of the new agents vs. artesunic acid, stability studies of compound 8d and compound 1 were conducted in 2.5% K2 CO3 /D2 O solution at room temperature and were monitored by PMR. [drawing 8]
as §1, §2, §3

cerebral malaria = settings: background; cited from earlier work
[3] = system: Plasmodium falciparum D-6 (Sierra Leone clone) and W-2 (Indochina clone); experiment: In vitro antimalarial activity against both clones, summarised in words; type: cell-based; settings: D-6 and W-2 clones
Description: (§4) The former clone is a strain that is resistant to mefloquine and the latter, to chloroquine, pyrimethamine, sulfadoxine, and quinine.
(§5) In vitro assays were conducted using a modification of the semiautomated microdilution technique of Desjardins et al., Antimicrob. Agents Chemoether., 1979, Volume 16, page 710 and Milhous et al., Antimicrob. Agents Chemother., 1985, Volume 27, page 525. Two P. falciparum malaria parasite clones, designated as Indochina (W-2) and Sierra Leone (D-6), were utilized in susceptibility testing. They were derived by direct visualization and micromanipulation from patient isolates obtained by the Centers for Disease Control, Atlanta, GA in 1980 and 1982, respectively. The patients had acquired infections either in Vietnam or Sierra Leone. The Indochina clone is resistant to the antimalarials chloroquine, sulfadoxine, pyrimethamine, and quinine, whereas the Sierra Leone, is resistant to mefloquine but susceptible to chloroquine, quinine, sulfadoxine, and pyrimethamine. Test compounds were initially dissolved in DMSO and 70% ethanol and diluted in RPMI 1640 culture medium with 10% human plasma to 400 fold. Drugs were subsequently further diluted using the Cetus Pro/Pette (Perkin-Elmer Corp., Norwalk, CT) over a range of 1.56-100×10^-9 molar. Parasite inocula (at 0.5% parasitemia and a 1% hematocrit) were incubated for 24 hours and added to equimolar concentrations of each test compound prior to the addition of ^3 H-hypoxanthine. After a further incubation of 18 hours, particulate matter was harvested from each microtiter well using an automated cell harvester (Skatron, Inc., Sterling, VA). Uptake of ^3 H-hypoxanthine was measured using a scintillation spectrophotometer (Model LS3801, Beckman Instruments, Irvine, CA). Concentration-response data were analyzed by nonlinear regression and the IC50 's (50% inhibitory concentrations) for each compound were calculated.

malaria [4] = settings: background; cited from earlier work
malaria [5] = settings: background, reported; cited from earlier work
[6] = system: P. falciparum Indochina (W-2) clone; experiment: In vitro antimalarial susceptibility, 3H-hypoxanthine uptake, Indochina (W-2) clone; type: cell-based, Plasmodium falciparum; settings: for IC50: Plasmodium falciparum
Description: as §4
as §5, with “CA).” for “CA). Concentration-response data were analyzed by nonlinear regression and the IC50 's (50% inhibitory concentrations) for each compound were calculated.”

[7] = system: P. falciparum Sierra Leone (D-6) clone; experiment: In vitro antimalarial susceptibility, 3H-hypoxanthine uptake, Sierra Leone (D-6) clone; type: cell-based, Plasmodium falciparum; settings: for IC50: Plasmodium falciparum
Description: as §4
as §5, with “CA).” for “CA). Concentration-response data were analyzed by nonlinear regression and the IC50 's (50% inhibitory concentrations) for each compound were calculated.”

[8] = 40 mg/kg/day SC x 3 days, 5% NaHCO3
[9] = 160 mg/kg/day SC x 3 days, 5% NaHCO3
[10] = 640 mg/kg/day SC x 3 days, 5% NaHCO3
[11] = 40 mg/kg/day SC x 3 days, peanut oil

SMILES: C[C@H]1[C@H](OC(=O)CCC(=O)O)O[C@@H]2O[C@@]3(C)CC[C@H]4[C@H](C)CC[C@@H]1[C@@]24OO3 [Compound 1, artesunic acid]
- half-life of hydrolysis (estimated) ([1]; 5% NaHCO3): about 4.5 days
- rate of hydrolysis compared with 2.5% K2CO3/D2O ([1]; 5% NaHCO3/D2O vs 2.5% K2CO3/D2O): slower
- degraded at 4 h ([1]; 5% NaHCO3/D2O, room temperature, 4 hours, read-out: % Hydrolysis): < 5%
- degraded at 48 h ([1]; 5% NaHCO3/D2O, room temperature, 2 days, read-out: % Hydrolysis): 22%
- degraded at 72 h ([1]; 5% NaHCO3/D2O, room temperature, 3 days, read-out: % Hydrolysis): 33%
- degraded at 96 h ([1]; 5% NaHCO3/D2O, room temperature, 4 days, read-out: % Hydrolysis): 45%
- degraded at 192 h ([1]; 5% NaHCO3/D2O, room temperature, 8 days, read-out: % Hydrolysis): 75%
- degraded at 216 h ([1]; 5% NaHCO3/D2O, room temperature, 9 days, read-out: % Hydrolysis): 82%
- Number active (A) (Plasmodium berghei; [8]): 2/5
- Number of Cures (Plasmodium berghei; [8]): 0/5
- Number active (A) (Plasmodium berghei; [9]): 3/5
- Number of Cures (Plasmodium berghei; [9]): 0/5
- Number of Cures (Plasmodium berghei; [10]): 5/5
- water solubility ([2]; listed as compound 1): water-soluble
- half-life of hydrolysis (estimated) (physchem; 2.5% K2CO3 solution): < 24 h
- degraded at 1.5 h (physchem; 2.5% k2co3/d2o): 20%
- degraded at 24 h (physchem; 2.5% k2co3/d2o): 60%
- degraded at 48 h (physchem; 2.5% k2co3/d2o): 75%
- degraded at 72 h (physchem; 2.5% k2co3/d2o): 91%
- degraded at 96 h (physchem; 2.5% k2co3/d2o): 98%

SMILES: C[C@@H]1CC[C@H]2[C@@H](C)C(O)O[C@@H]3O[C@@]4(C)CC[C@@H]1[C@]32OO4 (stereo partly shown) [Compound 2, Dihydroartemisinin]
- efficacy against cerebral malaria in man (cerebral malaria): proven efficacious against cerebral malaria in man
- cross-resistance to mefloquine, chloroquine, pyrimethamine, sulfadoxine, quinine [3]: not cross-resistant
- cross-resistance to chloroquine (malaria [4]): Neither artemisinin nor dihydroartemisinin exhibit cross-resistance to chloroquine
- therapeutic activity compared with its parent compound artemisinin (malaria [5]): more therapeutically active than its parent compound

SMILES: C[C@@H]1CC[C@H]2[C@@H](C)C(=O)O[C@@H]3O[C@@]4(C)CC[C@@H]1[C@]32OO4 [Compound 3, Artemisinin]
- efficacy against cerebral malaria in man (cerebral malaria): proven efficacious against cerebral malaria in man
- Blood films positive (Plasmodium berghei; 40 mg/kg, peanut oil, SC): 3 of 5
- Number active (A) (Plasmodium berghei; [11]): 3/5
- Number of Cures (Plasmodium berghei; [11]): 2/5
- Blood films (Plasmodium berghei; 160 mg/kg, peanut oil, SC): negative
- Number of Cures (Plasmodium berghei; 160 mg/kg/day SC x 3 days, peanut oil): 5/5
- Blood films (Plasmodium berghei; 640 mg/kg, peanut oil, SC): negative
- Number of Cures (Plasmodium berghei; 640 mg/kg/day SC x 3 days, peanut oil): 5/5
- cross-resistance to mefloquine, chloroquine, pyrimethamine, sulfadoxine, quinine [3]: not cross-resistant
- cross-resistance to chloroquine (malaria [4]): Neither artemisinin nor dihydroartemisinin exhibit cross-resistance to chloroquine
- IC50 [6]: 0.66 ng/mL (≈ 2.34 nM)
- IC50 [7]: 2.93 ng/mL (≈ 10.4 nM)

SMILES: CCOC(=O)COC1OC2OC3(C)CCC4C(C)CCC(C1C)C24OO3 (stereo not shown) [Compound 5a, Ethyl 2-(10-Dihydroartemisininoxy)acetate]
- IC50 [6]: 0.26 ng/mL (≈ 0.702 nM)
- IC50 [7]: 0.6 ng/mL (≈ 1.62 nM)

SMILES: COC(=O)CCOC1OC2OC3(C)CCC4C(C)CCC(C1C)C24OO3 (stereo not shown) [Compound 5b, Methyl 3-(10-Dihydroartemisininoxy)propionate]
- IC50 [6]: 0.64 ng/mL (≈ 1.73 nM)
- IC50 [7]: 1.84 ng/mL (≈ 4.97 nM)

SMILES: COC(=O)CCCOC1OC2OC3(C)CCC4C(C)CCC(C1C)C24OO3 (stereo not shown) [Compound 5c, Methyl 4-(10-Dihydroartemisininoxy)butyrate]
- IC50 [6]: 0.95 ng/mL (≈ 2.47 nM)
- IC50 [7]: 3.06 ng/mL (≈ 7.96 nM)

SMILES: COC(=O)c1ccc(COC2OC3OC4(C)CCC5C(C)CCC(C2C)C35OO4)cc1 (stereo not shown) [Compound 5d, Methyl p-(10-Dihydroartemisininoxy)methylbenzoate]
- IC50 [6]: 0.37 ng/mL (≈ 0.855 nM)
- IC50 [7]: 0.77 ng/mL (≈ 1.78 nM)

SMILES: C[C@H]1[C@H](OC(=O)CCC(=O)O)O[C@@H]2O[C@@]3(C)CC[C@H]4[C@H](C)CC[C@@H]1[C@@]24OO3 [Sodium artesunate]
- water solubility [2]: water soluble

The next lines start with results.

- IC50 [6]: 26.2 ng/mL
- In vitro antimalarial activity IC50, Sierra Leone (D-6) [7]: 53.79 ng/mL
SMILES: CC1CCC2C(C)C(OCC(=O)O)OC3OC4(C)CCC1C32OO4 (stereo not shown) [Compound 7a, Potassium 2-(10-Dihydroartemisininoxy)acetate]

- In vitro antimalarial activity IC50, Indochina Clone (W-2) [6]: 23.28 ng/mL
- In vitro antimalarial activity IC50, Sierra Leone (D-6) [7]: 85.02 ng/mL
SMILES: CC1CCC2C(C)C(OCCC(=O)O)OC3OC4(C)CCC1C32OO4 (stereo not shown) [Compound 7b, Potassium 3-(10-Dihydroartemisininoxy)propionate]

- IC50 [6]: 10.5 ng/mL
- In vitro antimalarial activity IC50, Sierra Leone (D-6) [7]: 75.52 ng/mL
SMILES: CC1CCC2C(C)C(OCCCC(=O)O)OC3OC4(C)CCC1C32OO4 (stereo not shown) [Compound 7c, Potassium 4-(10-Dihydroartemisininoxy)butyrate]

- IC50 [6]: 35.6 ng/mL (≈ 100 nM)
- In vitro antimalarial activity IC50, Sierra Leone (D-6) [7]: 51.74 ng/mL
SMILES: CC1CCC2C(C)C(OCCC(=O)O)OC3OC4(C)CCC1C32OO4 (stereo not shown) [Compound 8b, 3-(10-Dihydroartemisininoxy)propionic Acid]

- In vitro antimalarial activity IC50, Indochina Clone (W-2) [6]: 8.04 ng/mL
- In vitro antimalarial activity IC50, Sierra Leone (D-6) [7]: 17.90 ng/mL
SMILES: CC1CCC2C(C)C(OCCCC(=O)O)OC3OC4(C)CCC1C32OO4 (stereo not shown) [Compound 8c, 4-(10-Dihydroartemisininoxy)butyric Acid]

- In vitro antimalarial activity IC50, Indochina Clone (W-2) [6]: 1.38 ng/mL
- In vitro antimalarial activity IC50, Sierra Leone (D-6) [7]: 4.07 ng/mL
- detectable change (physchem; 2.5% K2CO3/D2O, room temperature, after 35 days): no detectable change
- degraded at 1.5 h (physchem; 2.5% k2co3/d2o): 0%
- degraded at 24 h (physchem; 2.5% k2co3/d2o): 0%
- degraded at 48 h (physchem; 2.5% k2co3/d2o): 0%
- degraded at 72 h (physchem; 2.5% k2co3/d2o): 0%
- degraded at 96 h (physchem; 2.5% k2co3/d2o): 0%
- degraded at 1608 h (physchem; 2.5% k2co3/d2o): < 3%
SMILES: CC1CCC2C(C)C(OCc3ccc(C(=O)O)cc3)OC3OC4(C)CCC1C32OO4 (stereo not shown) [Compound 8d, Para-(10-Dihydroartemisininoxy)methylbenzoic Acid]
- Number of Cures (Plasmodium berghei; [8]): 5/5
- Number of Cures (Plasmodium berghei; [9]): 5/5
- Number of Cures (Plasmodium berghei; [10]): 5/5
